From the NIST ThermoML archive (doi:10.1021/je100830b)
Numbers after ± are expanded uncertainties.

Conditions: 298.15 K; 101.33 kPa; Liquid; Vibrating tube method

mass density [kg/m3] | Structure (SMILES)
786.4 ± 0.2 | CCO [ethanol]
797.6 ± 0.2 | CCCO [propan-1-ol]

The remaining lines, values behind:

Structure (SMILES) | mass density [kg/m3]
CCCCn1cc[n+](C)c1.COS(=O)(=O)[O-] [1-butyl-3-methylimidazolium methyl sulfate] | 1208 ± 2.8
CO [methanol] | 786.3 ± 0.2
C[N+](=O)[O-] [nitromethane] | 1130.9 ± 0.4
